Measured values reported in patent US6534516B1, “Androgen receptor modulator compounds and methods” (Ligand Pharmaceuticals Incorporated, priority 1996, dated 2003).
Read-outs that look alike come from different tables or passages of the source.

Key:
[1] = target: T1, human AR (Homo sapiens, UniProt P10275); assay: cell-based; format: cell-based; details: for EC50: read-out: AR Agonist CV-1 Cells Potency
T1 construct: expressed in transfected cells; host or cells: CV-1 cells (African green monkey kidney fibroblasts)
T1 sequence (P10275 1-920): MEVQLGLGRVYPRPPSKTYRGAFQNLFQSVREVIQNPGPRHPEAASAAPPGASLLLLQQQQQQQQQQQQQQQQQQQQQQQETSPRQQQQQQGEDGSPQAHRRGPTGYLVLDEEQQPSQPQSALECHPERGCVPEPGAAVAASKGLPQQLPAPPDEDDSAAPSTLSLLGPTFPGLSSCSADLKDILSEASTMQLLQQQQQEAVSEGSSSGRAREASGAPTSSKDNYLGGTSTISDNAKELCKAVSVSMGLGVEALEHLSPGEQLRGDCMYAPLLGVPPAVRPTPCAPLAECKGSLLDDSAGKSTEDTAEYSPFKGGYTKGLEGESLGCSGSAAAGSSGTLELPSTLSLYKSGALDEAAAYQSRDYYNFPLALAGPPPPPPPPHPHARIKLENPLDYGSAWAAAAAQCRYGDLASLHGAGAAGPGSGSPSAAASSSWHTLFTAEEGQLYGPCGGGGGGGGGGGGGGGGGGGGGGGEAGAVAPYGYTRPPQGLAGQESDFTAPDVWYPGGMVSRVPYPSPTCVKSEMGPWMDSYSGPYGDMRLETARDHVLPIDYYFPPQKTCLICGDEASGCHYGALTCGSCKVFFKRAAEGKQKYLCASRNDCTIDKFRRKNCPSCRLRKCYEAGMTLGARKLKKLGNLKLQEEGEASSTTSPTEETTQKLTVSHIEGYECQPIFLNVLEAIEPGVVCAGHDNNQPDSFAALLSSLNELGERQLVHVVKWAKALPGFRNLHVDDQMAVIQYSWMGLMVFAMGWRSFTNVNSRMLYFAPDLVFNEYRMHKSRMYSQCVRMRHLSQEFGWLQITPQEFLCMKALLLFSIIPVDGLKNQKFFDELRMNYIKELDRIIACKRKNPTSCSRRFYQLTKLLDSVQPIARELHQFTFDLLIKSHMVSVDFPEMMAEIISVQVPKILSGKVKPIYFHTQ
Text: The co-transfection assay provides a method for identifying functional agonists and partial agonists which mimic, or antagonists which inhibit, the effect of native hormones, and quantifying their activity for responsive IR proteins. In this regard, the co-transfection assay mimics an in vivo system in the laboratory. Importantly, activity in the co-transfection assay correlates very well with known in vivo activity, such that the co-transfection assay functions as a qualitative and quantitative predictor of a tested compounds in vivo pharmacology. See, e.g., T. Berger et al. 41 J. Steroid Biochem. Molec.
CV-1 cells (African green monkey kidney fibroblasts) were cultured in the presence of Dulbecco's Modified Eagle Medium (DMEM) supplemented with 10% charcoal resin-stripped fetal bovine serum then transferred to 96-well microtiter plates one day prior to transfection.
The reporter plasmid, MTV-LUC, contains the cDNA for firefly luciferase (LUC) under control of the mouse mammary tumor virus (MTV) long terminal repeat, a conditional promoter containing an androgen response element. See e.g., Berger et al. supra. In addition, pRS-β-Gal, coding for constitutive expression of E. coli β-galactosidase (β-Gal), was included as an internal control for evaluation of transfection efficiency and compound toxicity.
Three to four replicates were used for each sample.
After 40 hours, the cells were washed with PBS, lysed with a Triton X-100-based buffer and assayed for LUC and β-Gal activities using a luminometer or spectrophotometer, respectively. For each replicate, the normalized response (NR) was calculated as:
where β-Gal rate=β-Gal•1×10^−5/β-Gal incubation time.

[2] = target: T1, human AR; assay: cell-based; details: read-out: AR Binding Ki
[3] = test system: immature castrated male rat; assay: Immature castrated male rat model with testosterone silastic implant, ventral prostate and seminal vesicle weights; format: in vivo; details: for ED50: Rattus norvegicus, 72 h; for effect on ventral prostate and seminal vesicle weights (in words): Tables 5 and 6
Text: The activity of selected compounds of the present invention as AR antagonists was *~ investigated in an immature castrated male rat model. A recognized test of the antiandrogen activity of a given compound, as described in L. G. Hershberger et al., 83 Proc. Soc. Exptl. […] Similar approaches have been used in the rat and in hamsters. […] Dermatol.
The basis of this assay is the fact that male sexual accessory organs, such as the prostate and seminal vesicles, play an important role in reproductive function. […] See F. Labrie et al., 16 Clin. Invest. […] However, this is not a major pathway since, in both animals and humans, castration without concomitant adrenalectomy leads to almost complete involution of the prostate and seminal vesicles. […] See M. C. […] Since the male sex organs are the tissues most responsive to modulation by androgen activity, this model is used to determine the androgen-dependent growth of the sex accessory organs in immature castrated rats.
Immature male rats (50-60 g, 21 day-old Sprague-Dawley, Harlan) were castrated under metofane anesthesia. […] As a negative control, a group of castrated animals received empty 10 mm silastic implants. Animal groups were dosed for 3 days by oral gavage as follows:
At the end of the 3-day treatment, the animals were sacrificed, and the ventral prostates and seminal vesicles were collected and weighed. Organ weight data were normalized to body weight of each animal and expressed as mg/100 g body weight. Results were analyzed by analysis of variance followed by the Dunnett's test. Data were transformed to comply with the normality and variance homogeneity criteria required to utilize the analysis of variance and Dunnett's test. The following data transformations were used for the ventral prostate and seminal vesicle: square root and power 0.7 respectively. Thereafter, the data were fitted to a four-parameter logistic equation and potencies derived from the fitted estimates. The same data transformations were used for the equation-fitting phase of the data analysis.
The gain and loss of sexual organ weights reflect the changes of cell number (DNA content) and cell mass (protein content), depending upon the serum androgen concentrations. […] Therefore, measurement of organ wet weights is sufficient to indicate the bioactivity of androgens and androgen antagonists.

[4] = agonist mode, percent maximal response relative to reference agonist DHT, na = not active (efficacy < 10 and potency > 10,000)
[5] = antagonist mode, DHT at its EC50, % of maximal inhibition, na = not active
[6] = read-out: AR Antagonist CV-1 Cells Potency
[7] = oral, 3 days, four-parameter logistic fit, number of experiments in parentheses, read-out: Potency (ED50) Weighted Average ± SE, Seminal Vesicle Weight
[8] = oral, 3 days, four-parameter logistic fit, number of experiments in parentheses, read-out: Potency (ED50) Weighted Average ± SE, Ventral Prostate Weight
[9] = T implant + 0.1 mg/kg oral, 3 days
[10] = T implant + 1 mg/kg oral, 3 days
[11] = T implant + 3 mg/kg oral, 3 days
[12] = T implant + 10 mg/kg oral, 3 days
[13] = T implant + 30 mg/kg oral, 3 days
[14] = T implant + 100 mg/kg oral, 3 days

`CC12CCCN1c1cc3[nH]c(=O)cc(C(F)(F)F)c3cc1CC2` (racemic) [Compound 101, (R/S)-6,7,7a,11-Tetrahydro-7a-methyl-4-trifluoromethyl-2-pyridono[5,6-g]pyrrolidino[1,2-a]quinoline] was tested, and the “AR Antagonist CV-1 Cells Efficacy” value [1] was 86 ± 6% and the IC50 [1] was 325 ± 68 nM.
`CCC1CCN(C=O)c2cc3[nH]c(=O)cc(C(F)(F)F)c3cc21` (racemic) [Compound 121, (R/S)-4-Ethyl-1-formyl-1,2,3,4-tetrahydro-6-(trifluoromethyl)-8-pyridono[5,6-g]quinoline] was tested, and the “AR Agonist CV-1 Cells Efficacy” value [1] was 72 ± 20% and the EC50 [1] was 150 ± 39 nM.
For `CCC1CCN(C(=O)C(F)(F)F)c2cc3[nH]c(=O)cc(C(F)(F)F)c3cc21` (racemic) [Compound 122, (R/S)-4-Ethyl-1,2,3,4-tetrahydro-1-(trifluoroacetyl)-6-(trifluoromethyl)-8-pyridono[5,6-g]quinoline], the “AR Agonist CV-1 Cells Efficacy” value [1, 4] was 100 ± 17%, the EC50 [1] was 3 nM and the Ki [2] was 7 ± 2 nM.
In the case of `CCC1CCNc2c1cc1c(C(F)(F)F)cc(=O)[nH]c1c2[N+](=O)[O-]` (racemic) [Compound 124, (R/S)-4-Ethyl-1,2,3,4-tetrahydro-10-nitro-6-(trifluoromethyl)-8-pyridono[5,6-g]quinoline], the “AR Agonist CV-1 Cells Efficacy” value [1, 4] is reported as 50 ± 1% and the EC50 [1] is reported as 202 ± 18 nM.
`CC(O)(CS(=O)(=O)c1ccc(F)cc1)C(=O)Nc1ccc(C#N)c(C(F)(F)F)c1` (stereo not shown) [Casodex] was tested, and the ED50 ([3]; po, read-out: Potency (ED50) Weighted Average ± SE, Seminal Vesicle Weight) was 7.8 ± 0.9 mg/kg, the ED50 ([3]; po, read-out: Potency (ED50) Weighted Average ± SE, Ventral Prostate Weight) was 7 ± 0.9 mg/kg and the “effect on ventral prostate and seminal vesicle weights (in words)” value [3] was “dose-dependent decrease”.
In the case of `O=c1cc(C(F)(F)F)c2cc3c4c(c2[nH]1)CCCN4CCC3` [Compound 12, 11-(Trifluoromethyl)-9-pyridono[6,5-i]julolidine], the “AR Antagonist CV-1 Cells Efficacy” value [1, 5] is reported as 53 ± 16 % and the IC50 [1, 6] is reported as 2370 ± 215 nM.
With `Cn1c(=O)cc(C(F)(F)F)c2cc3c4c(c21)CCCN4CCC3` [Compound 13, 8-Methyl-11-(trifluoromethyl)-9-pyridono[6,5-i]julolidine] the “AR Antagonist CV-1 Cells Efficacy” value [1, 5] was 84 ± 6% and the IC50 [1, 6] was 726 ± 84 nM.
In the case of `CC1=CC(C)(C)Nc2c1cc1c(C(F)(F)F)c(F)c(=O)[nH]c1c2C` [Compound 114, 7-Fluoro-1,2-dihydro-2,2,4, 10-tetramethyl-6-trifluoromethyl-8-pyridono[5,6-g]quinoline], the “AR Antagonist CV-1 Cells Efficacy” value [1, 5] is reported as 90 ± 1% and the IC50 [1, 6] is reported as 203 ± 66 nM.
For `Cc1c2c(cc3c(C(F)(F)F)c(F)c(=O)n(C)c13)C(C)CC(C)(C)N2` (stereo not shown) [Compound 116, 7-Fluoro-1,2,3,4-tetrahydro-2,2,4,9,10-pentamethyl-6-trifluoromethyl-8-pyridono[5,6-g]quinoline], the “AR Antagonist CV-1 Cells Efficacy” value [1, 5] was 20% and the IC50 [1, 6] was 1460 nM.
With `Cc1c2c(cc3c(C(F)(F)F)c(F)c(=O)[nH]c13)C(C)CC(C)(C)N2C` (stereo not shown) [Compound 117, 7-Fluoro-1,2,3,4-tetrahydro-1,2,2,4,10-pentamethyl-6-trifluoromethyl-8-pyridono[5,6-g]quinoline] the “AR Antagonist CV-1 Cells Efficacy” value [1, 5] was 82 ± 1% and the IC50 [1, 6] was 394 ± 75 nM.
With `CC1(C)CCc2cc3c(C(F)(F)F)cc(=O)[nH]c3c([N+](=O)[O-])c2N1` [Compound 125, 1,2,3,4-Tetrahydro-2,2-dimethyl-10-nitro-6-(trifluoromethyl)-8-pyridono[5,6-g]quinoline] the “AR Antagonist CV-1 Cells Efficacy” value [1, 5] was 73% and the IC50 [1, 6] was 1340 nM.
For `CC1(C)CCc2cc3c(C(F)(F)F)c([N+](=O)[O-])c(=O)[nH]c3c([N+](=O)[O-])c2N1` [Compound 126, 1,2,3,4-Tetrahydro-2,2-dimethyl-7,10-dinitro-6-(trifluoromethyl)-8-pyridono[5,6-g]quinoline], the IC50 [1] was 5240 ± 363 nM and the “AR Antagonist CV-1 Cells Efficacy” value [1, 5] was 44 ± 2 %.
With `CC(C)C(=O)Nc1ccc([N+](=O)[O-])c(C(F)(F)F)c1` [Flutamide, 2-methyl-N-[4-nitro-3-(trifluoromethyl)phenyl]propanamide] the ED50 [3, 7] was 3.3 ± 0.4 mg/kg, the ED50 [3, 8] was 4 ± 0.6 mg/kg and the “Seminal Vesicles weight” value [3, 9] was 31.1 ± 0.9 (5) mg/100 g body weight. The “Ventral Prostate weight” value [3, 9] was 78.9 ± 3.5 (5) mg/100 g body weight, the “Seminal Vesicles weight” value [3, 10] was 27.9 ± 2.5 (5) mg/100 g body weight and the “Ventral Prostate weight” value [3, 10] was 73.1 ± 4.6 (5) mg/100 g body weight. The “Seminal Vesicles weight” value [3, 11] was 22.7 ± 0.9 (5) mg/100 g body weight, the “Ventral Prostate weight” value [3, 11] was 62.4 ± 3.7 (5) mg/100 g body weight and the “Seminal Vesicles weight” value [3, 12] was 12.4 ± 1.8 (5) mg/100 g body weight. The “Ventral Prostate weight” value [3, 12] was 43.0 ± 3.6 (5) mg/100 g body weight, the “Seminal Vesicles weight” value [3, 13] was 9.1 ± 1.3 (5) mg/100 g body weight and the “Ventral Prostate weight” value [3, 13] was 28.4 ± 3.1 (5) mg/100 g body weight. For the same compound, the “Seminal Vesicles weight” value [3, 14] was 9.9 ± 0.4 (5) mg/100 g body weight, the “Ventral Prostate weight” value [3, 14] was 29.9 ± 1.8 (5) mg/100 g body weight and the “effect on ventral prostate and seminal vesicle weights (in words)” value [3] was “dose-dependent decrease”.
In the case of `CC1(C)CCc2cc3c(C(F)(F)F)cc(=O)[nH]c3cc2N1` [LG120907, 1,2,3,4-Tetrahydro-2,2-dimethyl-6-trifluoromethyl-8-pyridono[5,6-g]quinoline], the ED50 [3, 7] is reported as 19.2 ± 2.8 mg/kg, the ED50 [3, 8] is reported as 18.3 ± 4.8 mg/kg and the “Seminal Vesicles weight” value [3, 9] is reported as 32.9 ± 1.2 (5) mg/100 g body weight. For the same compound, the “Ventral Prostate weight” value [3, 9] was 78.5 ± 2.0 (5) mg/100 g body weight, the “Seminal Vesicles weight” value [3, 10] was 28.9 ± 1.4 (5) mg/100 g body weight and the “Ventral Prostate weight” value [3, 10] was 57.3 ± 1.8 (5) mg/100 g body weight. The “Seminal Vesicles weight” value [3, 11] was 31.7 ± 2.9 (5) mg/100 g body weight, the “Ventral Prostate weight” value [3, 11] was 66.4 ± 5.6 (5) mg/100 g body weight and the “Seminal Vesicles weight” value [3, 12] was 28.2 ± 1.8 (5) mg/100 g body weight. The “Ventral Prostate weight” value [3, 12] was 59.9 ± 2.7 (5) mg/100 g body weight, the “Seminal Vesicles weight” value [3, 13] was 16.5 ± 0.8 (5) mg/100 g body weight and the “Ventral Prostate weight” value [3, 13] was 47.4 ± 2.9 (5) mg/100 g body weight. For the same compound, the “Seminal Vesicles weight” value [3, 14] was 10.4 ± 1.0 (5) mg/100 g body weight and the “Ventral Prostate weight” value [3, 14] was 20.2 ± 2.0 (5) mg/100 g body weight.
